Reference: PMC8037161 (International Journal of Molecular Sciences, 2021)

How the values were obtained:
[1] = tested on: poly(dG-dC)2 (DNA, polymer) GC; assay: ethidium bromide displacement, fluorescence; conditions: apparent; room temperature; ethidium bromide displaced; compound 10, 50, 100 µM
T4 coliphage DNA = assay: Ethidium displacement assay, apparent binding constant, T4 coliphage DNA; conditions: apparent association constant, ± 0.2 × 10^5 M^−1
From the text: The values of binding constants in the range of 0.7–6.4 × 10^5 M^−1 for T4 coliphage DNA for derivatives 1–18 was evidence of their minor-groove selectivity, because the major groove of T4 coliphage DNA is blocked by a-glycosylation of the 5-(hydroxymethyl)cytidine residues. […] All of the compounds bound to AT-rich sequences weaker than netropsin but some of them bound stronger to GC-rich sequences, e.g., compounds 3, 6, and 10.
(§1) The fluorescence of DNA solutions (calf thymus DNA, T4 coliphage DNA, poly(dA-dT)2 and poly(dG-dC)2 with the investigated compound (final concentrations 10, 50, 100 μM) was measured by fluorescence spectrophotometer Infinite M200 TECAN at room temperature according to the procedure described above. The determination of DNA-binding constants was described in previous articles. The apparent binding constant was calculated from KEtBr [EtBr] = Kapp [drug], where [drug] = the concentration of the tested compound at 50% reduction of fluorescence and KEtBr and [EtBr] are known. The results are reported as a percentage of fluorescence decreases in Table 1.

poly(dA-dT)2 = assay: Ethidium displacement assay, apparent binding constant, poly(dA-dT)2; conditions: apparent association constant, ± 0.2 × 10^5 M^−1
Description: as §1

calf thymus DNA = assay: Ethidium displacement assay, apparent binding constant, calf thymus DNA; conditions: apparent association constant, ± 0.2 × 10^5 M^−1
Description: as §1

recombinant human DHFR = molecular target: T1, recombinant human DHFR (Homo sapiens, UniProt P00374); assay: Dihydrofolate reductase (DHFR) inhibition assay; format: biochemical; conditions: assay kit
T1 construct: purchased
T1 sequence (P00374 1-187): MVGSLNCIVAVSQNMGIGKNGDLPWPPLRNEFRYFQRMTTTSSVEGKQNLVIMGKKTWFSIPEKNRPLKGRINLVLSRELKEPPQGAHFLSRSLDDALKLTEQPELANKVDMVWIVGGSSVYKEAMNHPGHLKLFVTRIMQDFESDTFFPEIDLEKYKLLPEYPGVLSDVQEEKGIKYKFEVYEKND

poly(dG-dC)2 = assay: Ethidium displacement assay, apparent binding constant, poly(dG-dC)2; conditions: apparent association constant, ± 0.2 × 10^5 M^−1
Description: as §1

pBR322 plasmid = assay: Ethidium bromide assay, DNA-binding effect on plasmid pBR322; conditions: % fluorescence relative to controls
From the text: Fluorescence readings are reported as % fluorescence relative to the controls.

[2] = tested on: poly(dA-dT)2 (DNA, polymer) AT; assay: ethidium bromide displacement, fluorescence; conditions: apparent; room temperature; ethidium bromide displaced; compound 10, 50, 100 µM

Row | Structure (SMILES) | Kapp [1] | Kapp T4 DNA (T4 coliphage DNA) | Kapp Poly (dA-dT)2 (poly(dA-dT)2) | Kapp Calf Thymus DNA (calf thymus DNA) | IC50 (recombinant human DHFR) | Kapp poly (dG-dC)2 (poly(dG-dC)2) | Decrease of Fluorescence (pBR322 plasmid) | Kapp [2]
1 | COc1cc(C(=O)Nc2ccc(N)c(I)c2)cc(OC)c1OC [Compound 1] | 3.6 ± 0.2 × 10^5 M^−1 | 160000 M⁻¹ | 310000 M⁻¹ | 300000 M⁻¹ | 21.89 ± 0.03 µM | 360000 M⁻¹ | 74.54% | 3.1 ± 0.2 × 10^5 M^−1
2 | COc1cc(C(=O)Nc2ccc(F)c(N)c2)cc(OC)c1OC [Compound 2] | 3.0 ± 0.2 × 10^5 M^−1 | 260000 M⁻¹ | 190000 M⁻¹ | 260000 M⁻¹ | 1.11 ± 0.02 µM | 300000 M⁻¹ | 52.89% | 1.9 ± 0.2 × 10^5 M^−1
3 | COc1cc(C(=O)Nc2cc(N)ccc2F)cc(OC)c1OC [Compound 3] | 5.3 ± 0.2 × 10^5 M^−1 | 410000 M⁻¹ | 430000 M⁻¹ | 170000 M⁻¹ | 10.13 ± 0.09 µM | 530000 M⁻¹ | 68.85% | 4.3 ± 0.2 × 10^5 M^−1
4 | COc1cc(C(=O)Nc2ccc(N)c(Cl)c2)cc(OC)c1OC [Compound 4] | 1.3 ± 0.2 × 10^5 M^−1 | 230000 M⁻¹ | 210000 M⁻¹ | 230000 M⁻¹ | 5.02 ± 0.03 µM | 130000 M⁻¹ | 87.99% | 2.1 ± 0.2 × 10^5 M^−1
5 | COc1cc(C(=O)Nc2cc(N)ccc2Cl)cc(OC)c1OC [Compound 5] | 2.3 ± 0.2 × 10^5 M^−1 | 100000 M⁻¹ | 130000 M⁻¹ | 270000 M⁻¹ | 30.02 ± 0.02 µM | 230000 M⁻¹ | 72.56% | 1.3 ± 0.2 × 10^5 M^−1
6 | COc1cc(C(=O)Nc2ccc(N)nc2)cc(OC)c1OC [Compound 6] | 4.8 ± 0.2 × 10^5 M^−1 | 130000 M⁻¹ | 250000 M⁻¹ | 400000 M⁻¹ | 0.99 ± 0.01 µM | 480000 M⁻¹ | 50.44% | 2.5 ± 0.2 × 10^5 M^−1
7 | COc1cc(OC)cc(C(=O)Nc2ccc(N)nc2)c1 [Compound 7] | 2.3 ± 0.2 × 10^5 M^−1 | 210000 M⁻¹ | 340000 M⁻¹ | 410000 M⁻¹ | 3.02 ± 0.09 µM | 230000 M⁻¹ | 66.89% | 3.4 ± 0.2 × 10^5 M^−1
8 | CN(Cc1cnc2nc(N)nc(N)c2n1)c1ccc(C(=O)N[C@@H](CCC(=O)O)C(=O)O)cc1 [MTX, methotrexate, reference compound] | – | – | – | – | – | – | 100% | –
9 | COc1cc(Cc2cnc(N)nc2N)cc(OC)c1OC [TMP, 2,4-diamino-5-(3,4,5-trimethoxybenzyl) pyrimidine, reference compound] | – | – | – | – | – | – | 100% | –
